This data set addresses P-glycoprotein 1 and 3 (MDR1a/MDR1b) (Mus musculus, UniProt P21447+P06795). The data set can be described thus: TP_TRANSPORTER: decrease in biliary excretion in mdr1a/1b(-/-) mouse. The format is functional, organism-based, Bile. The note with it: in vivo.

Turning to `CCc1c2c(nc3ccc(OC(=O)N4CCC(N5CCCCC5)CC4)cc13)-c1cc3c(c(=O)n1C2)COC(=O)[C@]3(O)CC` [IRINOTECAN], the Activity entry was “substrate [+]”.
